The record followed here is patent publication US12583870B2, “Azaheteroaryl compound and application thereof” (SHANGHAI BLUERAY BIOPHARMA CO., LTD., priority 2019, dated 2026).

Assay [1] has as its target T1, EED protein (His6-tagged full-length) binding to H3K27me3 polypeptide (Homo sapiens, UniProt O75530).
T1 construct: His6-tagged full-length EED protein (441 amino acids)
The experiment in a line: AlphaScreen evaluation of blocking the binding of EED to H3K27Me3. Particulars: EED 60 nM, biotinylated H3K27me3 75 nM, 30 minutes incubation. Summed up:
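His6-tagged full-length EED (60 nM working stock) and biotin-H3K27me3 peptide aa 19–33 (75 nM working stock) incubated 30 min RT with 9-point 3-fold compound series in 25 mM HEPES pH 8.0, 50 mM NaCl, 0.015% Tween 20, 0.5% BSA. Ni-chelate acceptor and streptavidin donor beads (5 μg/mL each), 1 h dark; IC50 from dose-response fit. Biotin-(His)6 counterscreen checked signal interference.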

Assay [2] has as its system trimethylation level of histone H3K27 in G401 cells. The assay can be described thus: ELISA (H3K27 trimethylation) analysis in G401 cells. Particulars: Homo sapiens, G-401, 72 hours, H3K27me3 standardized to H3. Format: cell-based. The method, boiled down:
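Cells exposed 72 h to 10-point 3-fold dilutions, top 10 μM, 0.5% final DMSO. Acid-extracted histones assayed by ELISA (ECL) for H3K27me3, normalized to total H3 and to DMSO control; IC50 from dose-response fit.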
(In general: An ELISA detects its analyte on a solid surface through an enzyme-linked reagent.)

For assay [3], the system named is KARPAS-422 cells. The assay can be described thus: Cell proliferation analysis, KARPAS-422, 13 days, CellTiter-Glo. It is filed as cell-based. Particulars: Homo sapiens, 312 h. The method, boiled down: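 KARPAS-422 cells were treated with PRC2 inhibitors over 9 three-fold dilutions from 10 μM top (0.5% DMSO, duplicates) in RPMI-1640 with 15% FBS at 37 °C. Every 3–4 days cells were counted and reseeded at 1×10^4/well with fresh compound. Viability was read by CellTiter-Glo luminescence on day 13.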
In general terms: ATP-based viability assays read luminescence as a measure of living cells.

T1 sequence (O75530 whole entry): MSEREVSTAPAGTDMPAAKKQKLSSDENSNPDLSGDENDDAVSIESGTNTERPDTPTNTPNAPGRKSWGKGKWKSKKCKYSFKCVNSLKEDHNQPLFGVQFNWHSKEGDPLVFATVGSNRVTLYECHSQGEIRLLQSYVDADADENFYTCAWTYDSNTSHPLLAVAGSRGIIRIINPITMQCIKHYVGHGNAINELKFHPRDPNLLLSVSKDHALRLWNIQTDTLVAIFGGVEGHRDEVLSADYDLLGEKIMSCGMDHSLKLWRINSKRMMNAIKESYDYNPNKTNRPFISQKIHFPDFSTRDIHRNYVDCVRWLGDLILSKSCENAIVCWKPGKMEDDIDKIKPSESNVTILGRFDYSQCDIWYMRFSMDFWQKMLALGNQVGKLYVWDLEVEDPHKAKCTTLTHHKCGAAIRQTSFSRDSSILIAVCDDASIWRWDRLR

As a reminder, the IC50 is the point on the concentration scale where inhibition reaches its midpoint. Read a high IC50 as lower potency. Regarding `CCc1cnc2c(-c3cnc(NCc4c(F)ccc5c4CCO5)n4cnnc34)cccn12` [8-(3-ethylimidazo[1,2-a]pyridin-8-yl)-N-((5-fluoro-2,3-dihydrobenzofuran-4-yl)methyl)-[1,2,4]triazolo[4,3-c]pyrimidin-5-amine], the values for the IC50 in assay [1], in assay [2] and in assay [3] were 0.0025 µM, 0.0009 µM and 0.0009 µM, respectively.

With `Fc1ccc2c(c1CNc1ncc(-c3cccn4c(Cc5ccccc5)cnc34)c3nncn13)CCO2` [8-(3-phenylmethylimidazo[1,2-a]pyridin-8-yl)-N-((5-fluoro-2,3-dihydrobenzofuran-4-yl)methyl)-[1,2,4]triazolo[4,3-c]pyrimidin-5-amine], the IC50 in assay [1] is 0.0012 µM; in assay [2], 0.0045 µM; in assay [3], 0.0036 µM.

Take `N#Cc1cnc2c(-c3cnc(NCc4c(F)ccc5c4CCO5)n4cnnc34)cccn12` [8-(5-(((5-fluoro-2,3-dihydrobenzofuran-4-yl)methyl)amino)-[1,2,4]triazolo[4,3-c]pyrimidin-8-yl)imidazo[1,2-a]pyridine-3-carbonitrile]: the IC50 in assay [1] worked out at 0.0047 µM; in assay [2], 0.0032 µM; in assay [3], 0.0035 µM.

As for `NC(=O)c1cnc2c(-c3cnc(NCc4c(F)ccc5c4CCO5)n4cnnc34)cccn12` [8-(5-(((5-fluoro-2,3-dihydrobenzofuran-4-yl)methyl)amino)-[1,2,4]triazolo[4,3-c]pyrimidin-8-yl)imidazo[1,2-a]pyridine-3-carboxamide], the values for the IC50 in assay [1], in assay [2] and in assay [3] were 0.0035 µM, 0.0041 µM and 0.0037 µM, respectively.

As for `Fc1ccc2c(c1CNc1ncc(-c3cc(Cl)cn4ccnc34)c3nncn13)CCO2` [8-(6-chloroimidazo[1,2-a]pyridin-8-yl)-N-((5-fluoro-2,3-dihydrobenzofuran-4-yl)methyl)-[1,2,4]triazolo[4,3-c]pyrimidin-5-amine], the IC50 is 0.0044 µM in assay [1], 0.0085 µM in assay [2] and 0.042 µM in assay [3].

For the compound `Fc1ccc2c(c1CNc1ncc(-c3ccn4ncnc4c3)c3nncn13)[C@H]1C[C@H]1O2` [8-([1,2,4]triazolo[1,5-a]pyridin-7-yl)-N-(((1aR,6bR)-5-fluoro-1a,6b-dihydro-1H-cyclopropa[b]benzofuran-6-yl)methyl)-[1,2,4]triazolo[4,3-c]pyrimidin-5-amine], the values for the IC50 in assay [1], in assay [2] and in assay [3] were 0.0045 µM, 0.0073 µM and 0.0077 µM, respectively.

As to `Fc1ccc2c(c1CNc1ncc(-c3cccn4ncnc34)c3nncn13)[C@H]1C[C@H]1O2` [8-([1,2,4]triazolo[1,5-a]pyridin-8-yl)-N-(((1aR,6bR)-5-fluoro-1a,6b-dihydro-1H-cyclopropa[b]benzofuran-6-yl)methyl)-[1,2,4]triazolo[4,3-c]pyrimidin-5-amine], the IC50 in assay [1] came to 0.004 µM; in assay [2] it was 0.0007 µM; in assay [3], 0.0019 µM.

Take `Fc1ccc2c(c1CNc1ncc(-c3ccc4nncn4c3)c3nncn13)[C@H]1C[C@H]1O2` [8-([1,2,4]triazolo[4,3-a]pyridin-6-yl)-N-(((1aR,6bR)-5-fluoro-1a,6b-dihydro-1H-cyclopropa[b]benzofuran-6-yl)methyl)-[1,2,4]triazolo[4,3-c]pyrimidin-5-amine]: the results for the IC50 in assay [1], in assay [2] and in assay [3] were 0.0042 µM, 0.0064 µM and 0.0431 µM, respectively.

In the case of `Fc1ccc2c(c1CNc1ncc(-c3cccn4cnnc34)c3nncn13)[C@H]1C[C@H]1O2` [8-([1,2,4]triazolo[4,3-a]pyridin-8-yl)-N-(((1aR,6bR)-5-fluoro-1a,6b-dihydro-1H-cyclopropa[b]benzofuran-6-yl)methyl)-[1,2,4]triazolo[4,3-c]pyrimidin-5-amine], the results for the IC50 in assay [1], in assay [2] and in assay [3] were 0.0095 µM, 0.0074 µM and 0.0048 µM, respectively.

For `Fc1ccc2c(c1CNc1ncc(-c3cccc4ncoc34)c3nncn13)CCO2` [8-(benzo[d]oxazol-7-yl)-N-((5-fluoro-2,3-dihydrobenzofuran-4-yl)methyl)-[1,2,4]triazolo[4,3-c]pyrimidin-5-amine], the IC50 was 0.0049 µM in assay [1], 0.013 µM in assay [2] and 0.0136 µM in assay [3].

As for `Cc1ccc(-c2cnc(NCc3c(F)ccc4c3CCO4)n3cnnc23)c2nc(CO)cn12` [(8-(5-(((5-fluoro-2,3-dihydrobenzofuran-4-yl)methyl)amino)-[1,2,4]triazolo[4,3-c]pyrimidin-8-yl)-5-methylimidazo[1,2-a]pyridin-2-yl)methanol], the IC50 turned out to be 0.0083 µM in assay [1], 0.0014 µM in assay [2] and 0.0033 µM in assay [3].

For `OCc1ccc(-c2cnc(NCc3c(F)ccc4c3CCO4)n3cnnc23)c2nccn12` [(8-(5-(((5-fluoro-2,3-dihydrobenzofuran-4-yl)methyl)amino)-[1,2,4]triazolo[4,3-c]pyrimidin-8-yl)imidazo[1,2-a]pyridin-5-yl)methanol], the IC50 in assay [1] stood at 0.021 µM; in assay [2], 0.0052 µM; in assay [3], 0.0086 µM.

With `CCOC(=O)c1cnc2c(-c3cnc(NCc4c(F)ccc5c4CCO5)n4cnnc34)cccn12` [Ethyl 8-(5-(((5-fluoro-2,3-dihydrobenzofuran-4-yl)methyl)amino)-[1,2,4]triazolo[4,3-c]pyrimidin-8-yl)imidazo[1,2-a]pyridine-3-carboxylate], the figures for the IC50 in assay [1], in assay [2] and in assay [3] were 0.0023 µM, 0.006 µM and 0.004 µM, respectively.

As to `COC(=O)Cc1cnc2c(-c3cnc(NCc4c(F)ccc5c4CCO5)n4cnnc34)ccc(C)n12` [Methyl 2-(8-(5-(((5-fluoro-2,3-dihydrobenzofuran-4-yl)methyl)amino)-[1,2,4]triazolo[4,3-c]pyrimidin-8-yl)-5-methylimidazo[1,2-a]pyridin-3-yl)acetate], the results for the IC50 in assay [1], in assay [2] and in assay [3] were 0.0062 µM, 0.0038 µM and 0.001 µM, respectively.

Turning to `COC(=O)c1ccc(-c2cnc(NCc3c(F)ccc4c3CCO4)n3cnnc23)c2nccn12` [Methyl 8-(5-(((5-fluoro-2,3-dihydrobenzofuran-4-yl)methyl)amino)-[1,2,4]triazolo[4,3-c]pyrimidin-8-yl)imidazo[1,2-a]pyridine-5-carboxylate], the IC50 in assay [1] was 0.008 µM; in assay [2] it was 0.0035 µM; in assay [3], 0.0051 µM.

For the compound `Cn1cnc2c(-c3cnc(NCc4c(F)ccc5c4CCO5)n4cnnc34)cccc21` [N-((5-fluoro-2,3-dihydrobenzofuran-4-yl)methyl)-8-(1-methyl-1H-benzo[d]imidazol-4-yl)-[1,2,4]triazolo[4,3-c]pyrimidin-5-amine], the IC50 is 0.0086 µM in assay [1], 0.0013 µM in assay [2] and 0.0016 µM in assay [3].

Consider `Fc1ccc2c(c1CNc1ncc(-c3cccn4cc(C(F)(F)F)nc34)c3nncn13)CCO2` [N-((5-fluoro-2,3-dihydrobenzofuran-4-yl)methyl)-8-(2-(trifluoromethyl)imidazo[1,2-a]pyridin-8-yl)-[1,2,4]triazolo[4,3-c]pyrimidin-5-amine], for which the IC50 in assay [1] came out at 0.0035 µM; in assay [2], 0.0024 µM; in assay [3] it was 0.0017 µM.

Turning to `Cc1nc2c(-c3cnc(NCc4c(F)ccc5c4CCO5)n4cnnc34)cccc2o1` [N-((5-fluoro-2,3-dihydrobenzofuran-4-yl)methyl)-8-(2-methylbenzo[d]oxazol-4-yl)-[1,2,4]triazolo[4,3-c]pyrimidin-5-amine], the figures for the IC50 in assay [1], in assay [2] and in assay [3] were 0.0092 µM, 0.0078 µM and 0.0042 µM, respectively.

On to `Cc1cn2cccc(-c3cnc(NCc4c(F)ccc5c4CCO5)n4cnnc34)c2n1` [N-((5-fluoro-2,3-dihydrobenzofuran-4-yl)methyl)-8-(2-methylimidazo[1,2-a]pyridin-8-yl)-[1,2,4]triazolo[4,3-c]pyrimidin-5-amine], for which the IC50 in assay [1] was found to be 0.0141 µM; in assay [2] it was 0.003 µM; in assay [3], 0.0024 µM.

For `Cc1ccc(-c2cnc(NCc3c(F)ccc4c3CCO4)n3cnnc23)c2ncc(C(C)C)n12` [N-((5-fluoro-2,3-dihydrobenzofuran-4-yl)methyl)-8-(3-isopropyl-5-methylimidazo[1,2-a]pyridin-8-yl)-[1,2,4]triazolo[4,3-c]pyrimidin-5-amine], the IC50 turned out to be 0.0028 µM in assay [1], 0.0007 µM in assay [2] and 0.001 µM in assay [3].

`Cc1cnc2c(-c3cnc(NCc4c(F)ccc5c4CCO5)n4cnnc34)cccn12` [N-((5-fluoro-2,3-dihydrobenzofuran-4-yl)methyl)-8-(3-methylimidazo[1,2-a]pyridin-8-yl)-[1,2,4]triazolo[4,3-c]pyrimidin-5-amine]: the figures for the IC50 in assay [1], in assay [2] and in assay [3] were 0.0046 µM, 0.0016 µM and 0.0014 µM, respectively.

Turning to `Cc1ccc(-c2cnc(NCc3c(F)ccc4c3CCO4)n3cnnc23)c2nccn12` [N-((5-fluoro-2,3-dihydrobenzofuran-4-yl)methyl)-8-(5-methylimidazo[1,2-a]pyridin-8-yl)-[1,2,4]triazolo[4,3-c]pyrimidin-5-amine], the IC50 in assay [1] amounted to 0.0058 µM; in assay [2], 0.0013 µM; in assay [3], 0.0013 µM.
